Among the data in US20110230471A1, “BENZONAPHTYRIDINE COMPOUNDS AS INHIBITORS OF AUTOTAXIN” (MERCK PATENT GESELLSCHAFT MIT BESCHRANKTER HAFTUNG, priority 2008, published 2011) are IC50 values, retold here.

Each structure is given as a SMILES string.

The target of this assay is T1, recombinant autotaxin (Homo sapiens, UniProt Q13822).
T1 construct: made in house; host or cells: Hi5 insect cells (baculovirus)
In words: Autotaxin test (enzyme test), Amplex Red. Format: biochemical. As to conditions: Autotaxin inhibition (enzyme test), TABLE 1 (A compounds); substrate LPC 75 μM. How it is done: The autotaxin activity is measured indirectly using Amplex Red reagent. Amplex Red is measured here as fluorogenic indicator for the H2O2 formed. In detail, autotaxin converts the substrate lysophosphatidylcholine (LPC) into phosphocholine and lysophosphatidylic acid (LPA). After this reaction, the phosphocholine is reacted with alkaline phosphatase to give inorganic phosphate and choline. In the next step, choline is oxidised by choline oxidase to give betaine, with formation of H2O2. H2O2 reacts with Amplex Red reagent in the presence of peroxidase (horseradish peroxidase) in a 1:1 stoichiometry and forms the highly fluorescent resorufin. The fluorescence is measured in a reaction-dependent kinetic mode in order that fluorescent signals from possible other fluorescent substances which are not involved in the reaction can be corrected out.
1.5 μl of a standard solution or of the test substances (substances with the name A(n))in individual concentrations dissolved in 20 mM Hepes pH 7.2 with a maximum of 7.7% of DMSO are pre-incubated together with 10 μl (16 ng) of highly purified recombinant autotaxin in a black microtitre plate provided with 384 wells at 22° C. for 30 min. The reaction is then initiated by addition of 5 μl of L-α-lysophosphatidylcholine (LPC), where the final concentration of LPC is 75 μM. The mixture is incubated at 37° C. for 90 min. After the incubation, Amplex Red reagent, peroxidase (horseradish peroxidase) and choline oxidase is added, and the fluorescence is immediately measured at 612 nm with excitation of 485 nm in a “Tecan Ultra multimode” reader. The activity of autotaxin is calculated indirectly via detection of the H2O2 formed.
• Microtitre plate: PS microplate, 384 wells, small volume, black Corning, Cat#3677 • Protein: recombinant autotaxin (Baculovirale Hi5 Expression) • Substrate: L-α-lysophosphatidylcholine (chicken egg)); Avanti Polar Lipids # 830071 P • Standard: C14 LPA, Avanti Polar Lipids, Cat# 857120P • Detection reagent: Amplex Red reagent; Invitrogen # A12222; dissolved in 1.923 ml of DMSO peroxidase type VI-A (horseradish) from Sigma # P6782; dissolved in 7.45 ml of test buffer, choline oxidase; Sigma # C5896; dissolved in 2.47 ml of test buffer • Detection reagent mix: 1:100 dilution of Amplex Red reagent in test buffer • Test buffer: 200 mM Tris HCl, Merck, Cat # 1.08219, pH 7.9, 0.1% of BSA, lipid-free, Roche Cat#775835
With `COc1ccc(Cl)cc1NC(=O)CN1CCc2nc3ccccc3c(C(=O)N3CCN(C)CC3)c2C1` [Compound A1, N-(5-chloro-2-methoxyphenyl)-2-[10-(4-methylpiperazine-1-carbonyl)-3,4-dihydro-1H-benzo[b][1,6]naphthyridin-2-yl]acetamide], the IC50 is less than 100 nM. As for `COc1ccc(Cl)cc1NC(=O)CN1CCc2nc3ccccc3c(C(=O)N3CCOCC3)c2C1` [Compound A7, N-(5-chloro-2-methoxyphenyl)-2-[10-(morpholine-4-carbonyl)-3,4-dihydro-1H-benzo[b][1,6]naphthyridin-2-yl]acetamide], the figure is less than 100 nM.

As for `O=C(CN1CCc2nc3ccccc3c(C(=O)N3CCOCC3)c2C1)Nc1cccc(Cl)c1` [Compound A9, N-(3-Chlorophenyl)-2-[10-(morpholine-4-carbonyl)-3,4-dihydro-1H-benzo-[b][1,6]naphthyridin-2-yl]acetamide], the IC50 was greater than 1000 nM. Under `COc1ccccc1NC(=O)CN1CCc2nc3ccccc3c(C(=O)N3CCOCC3)c2C1` [Compound A10, N-(2-Methoxyphenyl)-2-[10-(morpholine-4-carbonyl)-3,4-dihydro-1H-benzo-[b][1,6]naphthyridin-2-yl]acetamide] stands greater than 1000 nM; under `Cc1ccc(Cl)cc1NC(=O)CN1CCc2nc3ccccc3c(C(=O)N3CCOCC3)c2C1` [Compound A11, N-(5-Chloro-2-methylphenyl)-2-[10-(morpholine-4-carbonyl)-3,4-dihydro-1H-benzo[b][1,6]naphthyridin-2-yl]acetamide], greater than 1000 nM; under `COc1ccc(C)cc1NC(=O)CN1CCc2nc3ccccc3c(C(=O)N3CCOCC3)c2C1` [Compound A12, N-(2-Methoxy-5-methylphenyl)-2-[10-(morpholine-4-carbonyl)-3,4-dihydro-1H-benzo[b][1,6]naphthyridin-2-yl]acetamide], 100 to 1000 nM. As for `COc1ccc(Br)cc1NC(=O)CN1CCc2nc3ccccc3c(C(=O)N3CCOCC3)c2C1` [Compound A13, N-(5-Bromo-2-methoxyphenyl)-2-[10-(morpholine-4-carbonyl)-3,4-dihydro-1H-benzo[b][1,6]naphthyridin-2-yl]acetamide], the figure is less than 100 nM; as for `COc1ccc(-c2ccccc2)cc1NC(=O)CN1CCc2nc3ccccc3c(C(=O)N3CCOCC3)c2C1` [Compound A14, N-(4-Methoxybiphenyl-3-yl)-2-[10-(morpholine-4-carbonyl)-3,4-dihydro-1H-benzo[b][1,6]naphthyridin-2-yl]acetamide], 100 to 1000 nM; as for `COc1ccc(Cl)cc1NC(=O)CN1CCc2nc3cc(Cl)ccc3c(C(=O)N3CCOCC3)c2C1` [Compound A15, N-(5-Chloro-2-methoxyphenyl)-2-[7-chloro-10-(morpholine-4-carbonyl)-3,4-dihydro-1H-benzo[b][1,6]naphthyridin-2-yl]acetamide], 100 to 1000 nM. As for `COc1ccc(Cl)cc1NC(=O)CN1CCc2nc3c(Cl)cccc3c(C(=O)N3CCOCC3)c2C1` [Compound A16, N-(5-Chloro-2-methoxyphenyl)-2-[6-chloro-10-(morpholine-4-carbonyl)-3,4-dihydro-1H-benzo[b][1,6]naphthyridin-2-yl]acetamide], the IC50 is 100 to 1000 nM.

Consider `CCc1ccc2c(C(=O)N3CCOCC3)c3c(nc2c1)CCN(CC(=O)Nc1cc(Cl)ccc1OC)C3` [Compound A17, N-(5-Chloro-2-methoxyphenyl)-2-[7-ethyl-10-(morpholine-4-carbonyl)-3,4-dihydro-1H-benzo[b][1,6]naphthyridin-2-yl]acetamide], for which the IC50 fell in the range of 100 to 1000 nM.

With `CCN1CCN(C(=O)c2c3c(nc4ccccc24)CCN(CC(=O)Nc2cc(Cl)ccc2OC)C3)CC1` [Compound A23, N-(5-Chloro-2-methoxyphenyl)-2-[10-(4-ethylpiperazine-1-carbonyl)-3,4-dihydro-1H-benzo[b][1,6]naphthyridin-2-yl]acetamide], the IC50 is less than 100 nM. As for `COc1ccc(Cl)cc1NC(=O)CN1CCc2nc3ccccc3c(C(=O)N3CCN(C(=O)OCc4ccccc4)CC3)c2C1` [Compound A25, 4-{2-[(5-Chloro-2-methoxyphenylcarbamoyl)methyl]-1,2,3,4-tetrahydrobenzo[b][1,6]naphthyridine-10-carbonyl}piperazine-1-carboxylic acid benzyl ester], the figure is 100 to 1000 nM. As for `COc1ccc(Cl)cc1NC(=O)CN1CCc2nc3ccccc3c(C(=O)N3CCCN(Cc4ccccc4)CC3)c2C1` [Compound A26, 2-[10-(4-Benzyl-1,4-diazepan-1-carbonyl)-3,4-dihydro-1H-benzo[b][1,6]-naphthyridin-2-yl]-N-(5-chloro-2-methoxyphenyl)acetamide], the figure is 100 to 1000 nM; as for `COc1ccc(Cl)cc1NC(=O)CN1CCc2nc3ccccc3c(C(=O)N3CCNCC3)c2C1` [Compound A27, N-(5-chloro-2-methoxyphenyl)-2-[10-(piperazine-1-carbonyl)-3,4-dihydro-1H-benzo[b][1,6]naphthyridin-2-yl]acetamide], 100 to 1000 nM. As for `COc1ccc(Cl)cc1NC(=O)CN1CCc2nc3ccccc3c(C(=O)N3CCN(C4CCCC4)CC3)c2C1` [Compound A28, N-(5-Chloro-2-methoxyphenyl)-2-[10-(4-cyclopentylpiperazine-1-carbonyl)-3,4-dihydro-1H-benzo[b][1,6]naphthyridin-2-yl]acetamide], the figure is 100 to 1000 nM; as for `CCCN1CCN(C(=O)c2c3c(nc4ccccc24)CCN(CC(=O)Nc2cc(Cl)ccc2OC)C3)CC1` [Compound A29, N-(5-Chloro-2-methoxyphenyl)-2-[10-(4-propylpiperazine-1-carbonyl)-3,4-dihydro-1H-benzo[b][1,6]naphthyridin-2-yl]acetamide], less than 100 nM. As to `COc1ccc(Cl)cc1NC(=O)CN1CCc2nc3ccccc3c(C(=O)N3CCN(Cc4ccccc4)CC3)c2C1` [Compound A30, 2-[10-(4-Benzylpiperazine-1-carbonyl)-3,4-dihydro-1H-benzo[b][1,6]naphthyridin-2-yl]-N-(5-chloro-2-methoxyphenyl)acetamide], the IC50 was 100 to 1000 nM.

Regarding `CN1CCN(C(=O)c2c3c(nc4ccccc24)CCN(C(=O)CCc2ccc(Cl)cc2Cl)C3)CC1` [Compound A31, 3-(2,4-dichlorophenyl)-1-[10-(4-methylpiperazine-1-carbonyl)-3,4-dihydro-1H-benzo[b][1,6]naphthyridin-2-yl]propan-1-one], the IC50 was greater than 1000 nM. Under `CN1CCN(C(=O)c2c3c(nc4ccccc24)CCN(C(=O)CCc2ccc(Cl)cc2F)C3)CC1` [Compound A33, 3-(4-Chloro-2-fluorophenyl)-1-[10-(4-methylpiperazine-1-carbonyl)-3,4-dihydro-1H-benzo[b][1,6]naphthyridin-2-yl]propan-1-one] stands greater than 1000 nM. As for `COc1ccc(Cl)cc1NC(=O)CN1CCc2nc3c(Br)cccc3c(C(=O)N3CCOCC3)c2C1` [Compound A40, 2-[6-Bromo-10-(morpholine-4-carbonyl)-3,4-dihydro-1H-benzo[b][1,6]naphthyridin-2-yl]-N-(5-chloro-2-methoxyphenyl)acetamide], the figure is 100 to 1000 nM; as for `CCOc1ccc(Cl)cc1NC(=O)CN1CCc2nc3ccccc3c(C(=O)N3CCOCC3)c2C1` [Compound A41, N-(5-Chloro-2-ethoxyphenyl)-2-[10-(morpholine-4-carbonyl)-3,4-dihydro-1H-benzo[b][1,6]naphthyridin-2-yl]acetamide], greater than 1000 nM; as for `COc1ccc(Cl)cc1NC(=O)CN1CCc2nc3cc(Br)ccc3c(C(=O)N3CCOCC3)c2C1` [Compound A42, 2-[7-Bromo-10-(morpholine-4-carbonyl)-3,4-dihydro-1H-benzo[b][1,6]-naphthyridin-2-yl]-N-(5-chloro-2-methoxyphenyl)acetamide], 100 to 1000 nM. Under `O=C(CN1CCc2nc3ccccc3c(C(=O)N3CCOCC3)c2C1)Nc1cc(Br)cc2ccoc12` [Compound A43, N-(5-Bromobenzofuran-7-yl)-2-[10-(morpholine-4-carbonyl)-3,4-dihydro-1H-benzo[b][1,6]naphthyridin-2-yl]acetamide] stands 100 to 1000 nM; under `O=C(CN1CCc2nc3ccccc3c(C(=O)N3CCOCC3)c2C1)Nc1cccc2ccoc12` [Compound A45, N-Benzofuran-7-yl-2-[10-(morpholine-4-carbonyl)-3,4-dihydro-1H-benzo-[b][1,6]naphthyridin-2-yl]acetamide], greater than 1000 nM.
